Test results from patent US9096549B2, “Selective HDAC3 inhibitors” (Acetylon Pharmaceuticals, Inc., priority 2013, dated 2015).

Assays:
Format in all cases: biochemical
Details in all cases: 24 hours pre-incubation with enzyme; tripeptide substrate 3 at Km
HDAC1 = HDAC1 (Homo sapiens (Human), UniProt Q13547); assay: HDAC enzyme assay, HDAC1
Experimental: (§1) Compounds for testing were diluted in DMSO to 50 fold the final concentration and a ten point three fold dilution series was made. The compounds were diluted in assay buffer (50 mM HEPES, pH 7.4, 100 mM KCl, 0.001% Tween-20, 0.05% BSA, […] tris(2-carboxyethyl)phosphine) to 6 fold their final concentration. The HDAC enzymes (purchased from BPS Biosciences) were diluted to 1.5 fold their final concentration in assay buffer and pre-incubated with the compounds for 24 hours prior to addition of the substrate.
(§2) The substrate tripeptide substrate 3 (synthesized in house) for each enzyme was equal to the Km as determined by a substrate titration curve. The substrates were diluted in assay buffer at 6× their final concentration with 0.3 μM sequencing grade trypsin (Sigma). The substrate/trypsin mix was added to the enzyme/compound mix, the plate was shaken for 60 seconds and placed into a Spectramax M5 microtiter plate reader. The development of fluorescence was monitored for 30 min. and the linear rate of the reaction was calculated. The IC50 was determined using Graph Pad Prism by a four parameter curve fit. The IC50 values obtained for the compounds of this invention are found in Table 1.

HDAC3 = HDAC3 (Homo sapiens (Human), UniProt O15379); assay: HDAC enzyme assay, HDAC3
Chain of HDAC3 (O15379 whole entry): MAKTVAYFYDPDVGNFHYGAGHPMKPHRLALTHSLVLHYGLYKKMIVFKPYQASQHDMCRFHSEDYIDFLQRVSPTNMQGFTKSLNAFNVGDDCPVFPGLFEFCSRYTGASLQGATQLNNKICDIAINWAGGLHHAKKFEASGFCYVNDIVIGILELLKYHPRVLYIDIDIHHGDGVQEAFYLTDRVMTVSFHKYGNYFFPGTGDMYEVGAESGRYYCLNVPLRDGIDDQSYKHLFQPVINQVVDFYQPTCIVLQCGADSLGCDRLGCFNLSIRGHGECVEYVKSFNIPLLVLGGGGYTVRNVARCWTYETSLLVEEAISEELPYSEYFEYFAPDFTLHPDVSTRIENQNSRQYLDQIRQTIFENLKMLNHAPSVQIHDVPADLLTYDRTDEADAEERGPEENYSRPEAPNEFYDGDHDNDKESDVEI
Chain of HDAC3 (Q9Y618 395-489 partner): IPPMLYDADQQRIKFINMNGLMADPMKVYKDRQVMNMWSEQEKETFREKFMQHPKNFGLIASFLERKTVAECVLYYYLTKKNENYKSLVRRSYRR
Experimental: as §1, §2

HDAC2 = HDAC2 (Homo sapiens (Human), UniProt Q92769); assay: HDAC enzyme assay, HDAC2
Chain of HDAC2 (Q92769 whole entry): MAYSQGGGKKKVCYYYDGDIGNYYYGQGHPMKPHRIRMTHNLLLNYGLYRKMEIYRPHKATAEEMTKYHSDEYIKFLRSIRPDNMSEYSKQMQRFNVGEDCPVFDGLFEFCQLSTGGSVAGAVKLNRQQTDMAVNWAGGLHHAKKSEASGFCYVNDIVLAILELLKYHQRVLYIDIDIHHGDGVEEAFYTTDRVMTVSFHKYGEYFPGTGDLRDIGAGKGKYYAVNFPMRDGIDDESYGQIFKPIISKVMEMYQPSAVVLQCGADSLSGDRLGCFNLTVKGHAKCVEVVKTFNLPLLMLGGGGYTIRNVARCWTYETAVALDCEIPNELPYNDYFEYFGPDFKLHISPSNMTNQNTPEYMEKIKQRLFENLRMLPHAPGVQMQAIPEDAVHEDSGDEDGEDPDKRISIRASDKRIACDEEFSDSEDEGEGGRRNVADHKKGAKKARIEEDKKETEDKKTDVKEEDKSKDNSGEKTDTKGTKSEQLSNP
Experimental: as §1, §2

Chain of HDAC1 (Q13547 whole entry): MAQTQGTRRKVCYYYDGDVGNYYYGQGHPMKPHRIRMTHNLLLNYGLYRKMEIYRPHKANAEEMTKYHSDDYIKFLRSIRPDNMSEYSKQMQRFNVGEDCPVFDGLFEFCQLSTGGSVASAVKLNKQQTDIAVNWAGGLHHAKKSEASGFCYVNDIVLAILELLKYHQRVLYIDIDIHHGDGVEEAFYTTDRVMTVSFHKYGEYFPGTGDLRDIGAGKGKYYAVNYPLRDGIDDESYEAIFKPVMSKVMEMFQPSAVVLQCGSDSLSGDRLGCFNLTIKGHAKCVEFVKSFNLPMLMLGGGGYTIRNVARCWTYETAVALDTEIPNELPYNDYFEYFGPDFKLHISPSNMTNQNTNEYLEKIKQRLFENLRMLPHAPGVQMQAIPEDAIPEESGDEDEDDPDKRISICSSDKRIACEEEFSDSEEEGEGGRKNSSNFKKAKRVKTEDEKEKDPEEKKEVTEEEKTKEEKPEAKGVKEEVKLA

SMILES | IC50 (HDAC1) [nM] | IC50 (HDAC3) [nM] | IC50 (HDAC2) [nM] | IC50 (nM) HDAC1 (HDAC1) | IC50 (nM) HDAC2 (HDAC2)
Nc1ccc(F)cc1NC(=O)c1cnc2c(C3CC3)c(N3CCNCC3)ccc2c1 [Compound A] | 468 | 59 | 455 |  | 
Nc1ccccc1NC(=O)c1cnc2c(C3CC3)c(N3CCNCC3)ccc2c1 [Compound B] | 355 | 53 | 372 |  | 
Nc1cc(F)ccc1NC(=O)c1ccc2c(c1)CC(=O)N2 [Compound C] |  | 269 | > 2000 | No inhibition | 
Nc1cc(F)ccc1NC(=O)c1ccc2[nH]cnc2c1 [Compound D] |  | 282 | > 2000 | No inhibition | 
CN1CCN(c2ccc3cc(C(=O)Nc4ccc(F)cc4N)cnc3c2C2CC2)CC1 [Compound E] | 1610 | 68 | 805 |  | 
Nc1cc(F)ccc1NC(=O)c1cnc2c(ccn2CCN2CCOCC2)c1 [Compound G] | > 2000 | 193 | 1530 |  | 
Nc1cc(F)ccc1NC(=O)c1ccc2c(cnn2CCN2CCOCC2)c1 [Compound H] | > 2000 | 320 | 1780 |  | 
Nc1cc(F)ccc1NC(=O)c1cnc2c(C3CC3)c(N3CCNCC3)ccc2c1 [Compound I] | > 2000 | 57 | 589 |  | 
Nc1cc(F)ccc1NC(=O)c1cnc2cc(N3CCNCC3)ccc2c1 [Compound J] |  | 470 | > 2000 | No inhibition | 
Nc1ccccc1NC(=O)c1cc2ccc(N3CCNCC3)cc2cn1 [Compound K, N-(2-aminophenyl)-7-(piperazin-1-yl)isoquinoline-3-carboxamide] | 299 | 38 | 271 |  | 
Nc1ccccc1NC(=O)c1cc2ccc(N3CCNCC3)c(C3CC3)c2cn1 [Compound L] | 228 | 33 | 212 |  | 
Nc1cc(F)ccc1NC(=O)c1cc2ccc(N3CCNCC3)c(C3CC3)c2cn1 [Compound M] | 462 | 30 | 228 |  | 
Nc1cc(F)ccc1NC(=O)c1cnc2cc(N3CCNCC3)ccc2n1 [Compound N] |  | 1300 |  | No inhibition | No inhibition
Nc1ccc(F)cc1NC(=O)c1cnc2cc(N3CCNCC3)ccc2n1 [Compound O] | > 2000 | 675 | > 2000 |  | 
Nc1ccc(F)cc1NC(=O)c1ccc2nc(N3CCNCC3)cnc2c1 [Compound P] | > 2000 | 235 | 1100 |  | 
Nc1ccc(F)cc1NC(=O)c1cnc2cc(N3CCNCC3)ccc2c1 [Compound Q, N-(2-amino-5-fluorophenyl)-7-(piperazin-1-yl)quinoline-3-carboxamide] | > 2000 | 308 | > 2000 |  | 
Nc1ccc(F)cc1NC(=O)c1ccc2nc(N3CCNCC3)ccc2c1 [Compound R] | > 2000 | 315 | 1340 |  | 
